Target: T1, rat GPR14 (U-II receptor) (Rattus norvegicus, UniProt P49684)
T1 construct: expressed in transfected cells
T1 sequence (P49684 1-386): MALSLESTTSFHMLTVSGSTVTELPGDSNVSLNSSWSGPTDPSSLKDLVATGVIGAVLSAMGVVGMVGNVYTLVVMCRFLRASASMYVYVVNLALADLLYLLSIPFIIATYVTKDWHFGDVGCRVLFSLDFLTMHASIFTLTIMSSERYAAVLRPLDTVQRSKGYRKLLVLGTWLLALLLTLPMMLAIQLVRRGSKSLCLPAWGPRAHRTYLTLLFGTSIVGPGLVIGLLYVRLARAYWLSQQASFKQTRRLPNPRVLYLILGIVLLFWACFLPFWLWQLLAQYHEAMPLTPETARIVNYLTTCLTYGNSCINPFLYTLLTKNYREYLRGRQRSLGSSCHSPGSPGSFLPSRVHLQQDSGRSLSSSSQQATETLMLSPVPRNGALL
Assay: Calcium flux assay (FLIPR)
Format: cell-based
Conditions: Inhibition of acetyl-cyclic[Cys-Phe-Trp-Lys-(2-Nal)-Cys]-NH2 (1 nM) induced Ca2+ mobilization (FLIPR) in CHO cells transfected with rat UII receptor; 5 min incubation
Text: To derive these cells, the complete coding sequence of rat […] was amplified by nested PCR from rat heart marathon-Ready cDNA. […] The PCR products were cloned into pcDNA3 (Invitrogen) digested with EcoR I and Xba I. Clones containing rat U-II receptor were verified by complete sequencing of the U-II receptor insert to ensure a lack of PCR-introduced errors. The constructed vector was transfected into CHO cells by using lipofectamine (GIBCO BRL). CHO cells with high expression of rat U-II receptor were selected and established as stable cell lines by using G418. CHO cells were seeded at 25,000 cells per well into 96-well, black-wall, clear-bottom microtiter plates 24 hrs before assay. Cells in culture media (DMEM/F12 containing 15 mM HEPES, L-glutamine, pyridoxine hydrochloride; 10% fetal bovine serum; 1 mg/mL G418 sulfate; antibiotic-antimycotic; pH 7.4) were loaded with proprietary dye, from the FLIPR Calcium Assay Kit (Molecular Devices), prepared in assay buffer (Hanks Balanced Salts Solution, 20 mM HEPES, 0.1% BSA, 2.5 mM probenecid, pH 7.4), and incubated for 1 hr at 37° C. Calcium mobilization determinations were performed at room temperature (23° C.).

Row | Structure (SMILES) | IC50 [µM]
1 | O=C(NCCN1CCNCC1)c1cc(Cl)ccc1C1CCN(CCN2C(=O)COc3ccccc32)CC1 [Cpd 73, 5-chloro-2-{1-[2-(3-oxo-2,3-dihydro-benzo[1,4]oxazin-4-yl)-ethyl]-piperidin-4-yl}-N-(2-piperazin-1-yl-ethyl)-benzamide] | 1.9
2 | O=C(NCCCN1CCCC1=O)c1ccccc1C1CCN(CCN2C(=O)COc3ccccc32)CC1 [Cpd 51, 2-{1-[2-(3-oxo-2,3-dihydro-benzo[1,4]oxazin-4-yl)-ethyl]-piperidin-4-yl}-N-[3-(2-oxo-pyrrolidin-1-yl)-propyl]-benzamide] | 22
3 | O=C1COc2ccccc2N1CCN1C2CCC1CC(c1ccccc1)C2 (centres unmarked) [Cpd 101, 4-[2-(3-phenyl-8-aza-bicyclo[3.2.1]oct-8-yl)-ethyl]-4H-benzo[1,4]oxazin-3-one] | 19
4 | O=C(NCCc1ccc(F)cc1)c1ccccc1C1CCN(CCN2C(=O)COc3ccccc32)CC1 [Cpd 16, N-[2-(4-fluoro-phenyl)-ethyl]-2-{1-[2-(3-oxo-2,3-dihydro-benzo[1,4]oxazin-4-yl)-ethyl]-piperidin-4-yl}-benzamide] | 8
5 | COC(=O)c1ccccc1C1CCN(CCN2C(=O)COc3ccccc32)CC1 [Cpd 93] | 32
6 | COCCNC(=O)c1ccccc1C1CCN(CCN2C(=O)COc3ccccc32)CC1 [Cpd 36, N-(2-methoxy-ethyl)-2-{1-[2-(3-oxo-2,3-dihydro-benzo[1,4]oxazin-4-yl)-ethyl]-piperidin-4-yl}-benzamide] | 25
7 | O=C(NCCc1cccs1)c1ccccc1C1CCN(CCN2C(=O)COc3ccccc32)CC1 [Cpd 47, 2-{1-[2-(3-oxo-2,3-dihydro-benzo[1,4]oxazin-4-yl)-ethyl]-piperidin-4-yl}-N-(2-thiophen-2-yl-ethyl)-benzamide] | 7
8 | O=C(NCCc1cccc(F)c1F)c1ccccc1C1CCN(CCN2C(=O)COc3ccccc32)CC1 [Cpd 23, N-[2-(2,3-difluoro-phenyl)-ethyl]-2-{1-[2-(3-oxo-2,3-dihydro-benzo[1,4]oxazin-4-yl)-ethyl]-piperidin-4-yl}-benzamide] | 7
9 | O=C(NCCc1ccc(Cl)cc1)c1ccccc1C1CCN(CCN2C(=O)COc3ccccc32)CC1 [Cpd 9, N-[2-(4-chloro-phenyl)-ethyl]-2-{1-[2-(3-oxo-2,3-dihydro-benzo[1,4]oxazin-4-yl)-ethyl]-piperidin-4-yl}-benzamide] | 3.2
10 | CCOCCCNC(=O)c1ccccc1C1CCN(CCN2C(=O)COc3ccccc32)CC1 [Cpd 38, N-(3-ethoxy-propyl)-2-{1-[2-(3-oxo-2,3-dihydro-benzo[1,4]oxazin-4-yl)-ethyl]-piperidin-4-yl}-benzamide] | 23
11 | COc1ccc(CCNC(=O)c2ccccc2C2CCN(CCN3C(=O)COc4ccccc43)CC2)cc1OC [Cpd 10, N-[2-(3,4-dimethoxy-phenyl)-ethyl]-2-{1-[2-(3-oxo-2,3-dihydro-benzo[1,4]oxazin-4-yl)-ethyl]-piperidin-4-yl}-benzamide] | 13
12 | O=C1COc2ccccc2N1CCN1CCC(C(=O)NCCc2ccccc2)(c2ccc(Cl)cc2)CC1 [Cpd 109, 4-(4-chloro-phenyl)-1-[2-(3-oxo-2,3-dihydro-benzo[1,4]oxazin-4-yl)-ethyl]-piperidine-4-carboxylic acid phenethyl-amide] | 5
13 | CN(C)C(=O)c1cc(Cl)ccc1C1CCN(CCN2C(=O)COc3ccccc32)CC1 [Cpd 59, 5-chloro-N,N-dimethyl-2-{1-[2-(3-oxo-2,3-dihydro-benzo[1,4]oxazin-4-yl)-ethyl]-piperidin-4-yl}-benzamide] | 10
14 | COc1cccc(CCNC(=O)c2ccccc2C2CCN(CCN3C(=O)COc4ccccc43)CC2)c1 [Cpd 6, N-[2-(3-methoxy-phenyl)-ethyl]-2-{1-[2-(3-oxo-2,3-dihydro-benzo[1,4]oxazin-4-yl)-ethyl]-piperidin-4-yl}-benzamide] | 10
15 | O=C(NCCCn1ccnc1)c1ccccc1C1CCN(CCN2C(=O)COc3ccccc32)CC1 [Cpd 48, N-(3-imidazol-1-yl-propyl)-2-{1-[2-(3-oxo-2,3-dihydro-benzo[1,4]oxazin-4-yl)-ethyl]-piperidin-4-yl}-benzamide] | 43
16 | O=C(NCCN1CCCCC1)c1ccccc1C1CCN(CCN2C(=O)COc3ccccc32)CC1 [Cpd 52, 2-{1-[2-(3-oxo-2,3-dihydro-benzo[1,4]oxazin-4-yl)-ethyl]-piperidin-4-yl}-N-(2-piperidin-1-yl-ethyl)-benzamide] | 16
17 | O=C(NCCCO)c1ccccc1C1CCN(CCN2C(=O)COc3ccccc32)CC1 [Cpd 39, N-(3-hydroxy-propyl)-2-{1-[2-(3-oxo-2,3-dihydro-benzo[1,4]oxazin-4-yl)-ethyl]-piperidin-4-yl}-benzamide] | 32
18 | O=C1COc2ccccc2N1CCN1CCC(c2cccc(F)c2)CC1 [Cpd 88, 4-{2-[4-(3-fluoro-phenyl)-piperidin-1-yl]-ethyl}-4H-benzo[1,4]oxazin-3-one] | 28
19 | O=C(NCCc1ccccn1)c1ccccc1C1CCN(CCN2C(=O)COc3ccccc32)CC1 [Cpd 42, 2-{1-[2-(3-oxo-2,3-dihydro-benzo[1,4]oxazin-4-yl)-ethyl]-piperidin-4-yl}-N-(2-pyridin-2-yl-ethyl)-benzamide] | 20
20 | O=C1COc2ccccc2N1CCN1CCC(C(=O)NCCCCc2ccccc2)(c2ccccc2)CC1 [Cpd 108, 1-[2-(3-oxo-2,3-dihydro-benzo[1,4]oxazin-4-yl)-ethyl]-4-phenyl-piperidine-4-carboxylic acid (4-phenyl-butyl)-amide] | 8.8
21 | CC(C)(C)OC(=O)N1CCN(CCNC(=O)c2ccccc2C2CC3CCC(C2)N3CCN2C(=O)COc3ccccc32)CC1 (centres unmarked) [Cpd 96, 4-[2-(2-{8-[2-(3-oxo-2,3-dihydro-benzo[1,4]oxazin-4-yl)-ethyl]-8-aza-bicyclo[3.2.1]oct-3-yl}-benzoylamino)-ethyl]-piperazine-1-carboxylic acid tert-butyl ester] | 3.5
22 | O=C(NCCCCc1ccccc1)c1ccccc1C1CCN(CCN2C(=O)COc3ccccc32)CC1 [Cpd 4] | 3.1
23 | O=C(NCCN1CCCCC1)c1cc(Cl)ccc1C1CCN(CCN2C(=O)COc3ccccc32)CC1 [Cpd 71, 5-chloro-2-{1-[2-(3-oxo-2,3-dihydro-benzo[1,4]oxazin-4-yl)-ethyl]-piperidin-4-yl}-N-(2-piperidin-1-yl-ethyl)-benzamide] | 0.27
24 | O=C(NCCc1cc(F)cc(F)c1)c1ccccc1C1CCN(CCN2C(=O)COc3ccccc32)CC1 [Cpd 21, N-[2-(3,5-difluoro-phenyl)-ethyl]-2-{1-[2-(3-oxo-2,3-dihydro-benzo[1,4]oxazin-4-yl)-ethyl]-piperidin-4-yl}-benzamide] | 9
25 | CCCNC(=O)c1ccccc1C1CCN(CCN2C(=O)COc3ccccc32)CC1 [Cpd 29, 2-{1-[2-(3-oxo-2,3-dihydro-benzo[1,4]oxazin-4-yl)-ethyl]-piperidin-4-yl}-N-propyl-benzamide] | 20
26 | O=C(NCCNC(=O)c1ccccc1C1CCN(CCN2C(=O)COc3ccccc32)CC1)Nc1ccc2ccccc2c1 [Cpd 54, N-[2-(3-naphthalen-2-yl-ureido)-ethyl]-2-{1-[2-(3-oxo-2,3-dihydro-benzo[1,4]oxazin-4-yl)-ethyl]-piperidin-4-yl}-benzamide] | 7

From US8759342B2, “Benzo[1,4]oxazin-3-one, benzo[1,4]thiazin-3-one and quinolin-2-one urotensin II receptor antagonists” (Janssen Pharmaceutica NV, priority 2006, dated 2014)
